Test results as given in paper PMC4139942 (Scientific Reports, 2014).

Columns and labels:
amylin aggregates = amylin aggregates (Homo sapiens, UniProt P10997); format: binding
AD brain samples = conditions: cited from earlier work

Chain of amylin aggregates (P10997 34-70): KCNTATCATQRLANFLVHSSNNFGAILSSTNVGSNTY

- Ki (amylin aggregates): 0.501 ± 0.0408 µM
Structure (SMILES): CNc1ccc(/C=C/c2ccc(OCCOCCOCCF)nc2)cc1 [AV-45, (E)-4-(2-(6-(2-(2-(2-fluoroethoxy)ethoxy)ethoxy)pyridin-3-yl)vinyl)-N-methylaniline]
- Ki (AD brain samples): 0.0067 µM
